Experimental data: patent publication US20240309043A1, “THERAPEUTICALLY ACTIVE STEROIDAL DERIVATIVES” (Organon R&D Finland Ltd., priority 2017, published 2024)

Key:
Assay type in all cases: biochemical
[1] = target: T1, recombinant human 17β-HSD1 (Homo sapiens, UniProt P14061); test: Inhibition of recombinant human 17β-HSD1; settings: inhibitor 100 nM; 30 nM estrone, 1 mM NADPH, 30 min RT
T1 construct: made in house; host or cells: Sd9 (Sf9) insect cells, baculovirus (Bac to Bac Expression System)
T1 sequence (P14061 1-328): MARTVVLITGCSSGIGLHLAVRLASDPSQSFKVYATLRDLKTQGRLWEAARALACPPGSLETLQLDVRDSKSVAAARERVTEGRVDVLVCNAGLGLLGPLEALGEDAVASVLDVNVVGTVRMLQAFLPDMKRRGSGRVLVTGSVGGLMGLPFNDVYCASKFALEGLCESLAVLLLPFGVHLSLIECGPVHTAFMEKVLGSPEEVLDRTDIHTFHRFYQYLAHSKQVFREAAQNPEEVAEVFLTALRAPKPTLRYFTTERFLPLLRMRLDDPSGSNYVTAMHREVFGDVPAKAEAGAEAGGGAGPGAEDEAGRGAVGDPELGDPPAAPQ
In short: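 Microsomes from Sf9 cells expressing human 17β-HSD1 (1 μg/ml) were incubated for 30 min at RT in 20 mM KH2PO4 pH 7.4 with 30 nM ³H-estrone, 1 mM NADPH and inhibitor at 1 μM or 0.1 μM (1% DMSO). Estrone-to-estradiol conversion was measured by radio-HPLC after TCA stop, and % inhibition was taken as 100 − % conversion.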

[2] = system: HSD1 enzyme that is expressed in rabbit placenta tissue; test: Inhibition of E1 to E2 conversion in rabbit placenta tissue homogenate; settings: inhibitor 100 nM, 30 nM estrone, 30 min
[3] = target: T2, recombinant human 17β-HSD2 (Homo sapiens, UniProt P37059); test: Inhibition of recombinant human 17β-HSD2; settings: inhibitor 1 μM; 50 nM estradiol, 1 mM NADH, 30 min RT
T2 construct: made in house; host or cells: Sd9 (Sf9) insect cells, baculovirus (Bac to Bac Expression System)
T2 sequence (P37059 1-387): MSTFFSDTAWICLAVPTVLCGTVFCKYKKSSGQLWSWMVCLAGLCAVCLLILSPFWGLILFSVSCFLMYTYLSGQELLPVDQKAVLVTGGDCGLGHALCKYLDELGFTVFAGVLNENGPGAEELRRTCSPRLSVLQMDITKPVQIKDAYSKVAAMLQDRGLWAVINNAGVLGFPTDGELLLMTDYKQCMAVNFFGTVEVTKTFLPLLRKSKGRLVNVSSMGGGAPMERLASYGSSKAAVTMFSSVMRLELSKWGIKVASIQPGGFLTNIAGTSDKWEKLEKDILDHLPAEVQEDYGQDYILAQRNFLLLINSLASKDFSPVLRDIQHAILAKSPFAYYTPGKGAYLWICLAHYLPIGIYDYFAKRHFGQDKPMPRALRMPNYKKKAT
In short: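 Sf9 baculovirus-expressed enzyme membrane extract (4 μg/ml) incubated 30 min at RT in 20 mM KH2PO4 pH 8.5 with 50 nM estradiol (³H-tracer) and 1 mM NADH, inhibitor at 1 μM or 0.1 μM, 1% DMSO. TCA-stopped; estradiol-to-estrone conversion by radio-HPLC, % inhibition = 100 − % conversion.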

| SMILES | inhibition at 0.1 µM [1] | Rabbit placenta inhibition % @100 nM [2] | inhibition at 1 µM [3] |
| --- | --- | --- | --- |
| CN(C(=O)CC[C@@H]1C/C(=N\O)[C@@]2(C)CCC3c4ccccc4CCC3C12)C1CCOCC1 (stereo partly drawn) [Compound 80, 3-((13S,15R,E)-17-(hydroxyimino)-13-methyl-7,8,9,11,12,13,14,15,16,17-decahydro-6H-cyclopenta[a]phenanthren-15-yl)-N-methyl-N-(tetrahydro-2H-pyran-4-yl)propanamide] | 32% | 3% | 4% |
| C[C@]12CCC3c4ccccc4CCC3C1[C@H](CCC(=O)Nc1cccnn1)C/C2=N\O (stereo partly drawn) [Compound 82] | 17% | 18% | 7% |
| CN1CCN(c2ccc(NC(=O)CC[C@@H]3C/C(=N\O)[C@@]4(C)CCC5c6ccccc6CCC5C34)nc2)CC1 (stereo partly drawn) [Compound 86, 3-((13S,15R,E)-17-(hydroxyimino)-13-methyl-7,8,9,11,12,13,14,15,16,17-decahydro-6H-cyclopenta[a]phenanthren-15-yl)-N-(5-(4-methylpiperazin-1-yl)pyridin-2-yl)propanamide] | 61% | 51% | 6% |
| Cc1ccnc(NC(=O)CC[C@@H]2C/C(=N\O)[C@@]3(C)CCC4c5ccccc5CCC4C23)c1 (stereo partly drawn) [Compound 88, 3-((13S,15R,E)-17-(hydroxyimino)-13-methyl-7,8,9,11,12,13,14,15,16,17-decahydro-6H-cyclopenta[a]phenanthren-15-yl)-N-(4-methylpyridin-2-yl)propanamide] | 65% | 10% | -2% |
| CN(C)C(=O)c1ccc(NC(=O)CC[C@@H]2C/C(=N\O)[C@@]3(C)CCC4c5ccccc5CCC4C23)nc1 (stereo partly drawn) [Compound 92, 6-(3-((13S,15R,E)-17-(hydroxyimino)-13-methyl-7,8,9,11,12,13,14,15,16,17-decahydro-6H-cyclopenta[a]phenanthren-15-yl)propanamido)-N,N-dimethylnicotinamide] | 37% | 15% | 9% |
| C[C@]12CCC3c4ccccc4CCC3C1[C@H](CCC(=O)Nc1cc3c([nH]c1=O)CCCC3)C/C2=N\O (stereo partly drawn) [Compound 94, 3-((13S,15R,E)-17-(hydroxyimino)-13-methyl-7,8,9,11,12,13,14,15,16,17-decahydro-6H-cyclopenta[a]phenanthren-15-yl)-N-(2-oxo-1,2,5,6,7,8-hexahydroquinolin-3-yl)propanamide] | 63% | 8% | 0% |
| C[C@]12CCC3c4ccccc4CCC3C1[C@H](CCC(=O)Nc1ccc(C#N)cn1)C/C2=N\O (stereo partly drawn) [Compound 100, N-(5-cyanopyridin-2-yl)-3-((13S,15R,E)-17-(hydroxyimino)-13-methyl-7,8,9,11,12,13,14,15,16,17-decahydro-6H-cyclopenta[a]phenanthren-15-yl)propanamide] | 51% | 12% | -2% |
| C[C@]12CCC3c4ccccc4CCC3C1[C@H](CCC(=O)Nc1ncccc1O)C/C2=N\O (stereo partly drawn) [Compound 102, 3-((13S,15R,E)-17-(hydroxyimino)-13-methyl-7,8,9,11,12,13,14,15,16,17-decahydro-6H-cyclopenta[a]phenanthren-15-yl)-N-(3-hydroxypyridin-2-yl)propanamide] | 57% | 1% | 20% |
| C[C@]12CCC3c4ccccc4CCC3C1[C@H](CCC(=O)Nc1ccccn1)C/C2=N\O (stereo partly drawn) [Compound 104, 3-((13S,15R,E)-17-(hydroxyimino)-13-methyl-7,8,9,11,12,13,14,15,16,17-decahydro-6H-cyclopenta[a]phenanthren-15-yl)-N-(pyridin-2-yl)propanamide] | 64% | 9% | -13% |
| CN1CCN(c2ccc(NC(=O)CC[C@@H]3C/C(=N\O)[C@@]4(C)CCC5c6cccc(F)c6CCC5C34)nc2)CC1 (stereo partly drawn) [Compound 116, 3-((13S,15R,E)-4-fluoro-17-(hydroxyimino)-13-methyl-7,8,9,11,12,13,14,15,16,17-decahydro-6H-cyclopenta[a]phenanthren-15-yl)-N-(5-(4-methylpiperazin-1-yl)pyridin-2-yl)propanamide] | 85% | 76% | 26% |
| CNC(=O)CC[C@@H]1C/C(=N\O)[C@@]2(C)CCC3c4cccc(F)c4CCC3C12 (stereo partly drawn) [Compound 118, 3-((13S,15R,E)-4-fluoro-17-(hydroxyimino)-13-methyl-7,8,9,11,12,13,14,15,16,17-decahydro-6H-cyclopenta[a]phenanthren-15-yl)-N-methylpropanamide] | 43% | −1% | 2% |
| CN(C)C(=O)CC[C@@H]1C/C(=N\O)[C@@]2(C)CCC3c4cccc(F)c4CCC3C12 (stereo partly drawn) [Compound 120, 3-((13S,15R,E)-4-fluoro-17-(hydroxyimino)-13-methyl-7,8,9,11,12,13,14,15,16,17-decahydro-6H-cyclopenta[a]phenanthren-15-yl)-N,N-dimethylpropanamide] | 57% | 9% | 2% |
| C[C@]12CCC3c4cccc(F)c4CCC3C1[C@H](CCC(=O)NC1CCOCC1)C/C2=N\O (stereo partly drawn) [Compound 122, 3-((13S,15R,E)-4-fluoro-17-(hydroxyimino)-13-methyl-7,8,9,11,12,13,14,15,16,17-decahydro-6H-cyclopenta[a]phenanthren-15-yl)-N-(tetrahydro-2H-pyran-4-yl)propanamide] | 67% | 4% | 6% |
| C[C@]12CCC3c4cccc(F)c4CCC3C1[C@H](CCC(=O)NC1CCCCC1)C/C2=N\O (stereo partly drawn) [Compound 124, N-Cyclohexyl-3-((13S,15R,E)-4-fluoro-17-(hydroxyimino)-13-methyl-7,8,9,11,12,13,14,15,16,17-decahydro-6H-cyclopenta[a]phenanthren-15-yl)propanamide] | 86% | 4% | 4% |
| C[C@]12CCC3c4cccc(F)c4CCC3C1[C@H](CCC(=O)Nc1cnccn1)C/C2=N\O (stereo partly drawn) [Compound 126, 3-((13S,15R,E)-4-fluoro-17-(hydroxyimino)-13-methyl-7,8,9,11,12,13,14,15,16,17-decahydro-6H-cyclopenta[a]phenanthren-15-yl)-N-(pyrazin-2-yl)propanamide] | 53% | 26% | 3% |
| C[C@]12CCC3c4cccc(F)c4CCC3C1[C@H](CCC(=O)N1CCC3(CCOCC3)C1)C/C2=N\O (stereo partly drawn) [Compound 128, 3-((13S,15R,E)-4-fluoro-17-(hydroxyimino)-13-methyl-7,8,9,11,12,13,14,15,16,17-decahydro-6H-cyclopenta[a]phenanthren-15-yl)-1-(8-oxa-2-azaspiro[4.5]decan-2-yl)propan-1-one] | 59% | 2% | 6% |
| Cc1ccnc(NC(=O)CC[C@@H]2C/C(=N\O)[C@@]3(C)CCC4c5cccc(F)c5CCC4C23)c1 (stereo partly drawn) [Compound 130, 3-((13S,15R,E)-4-fluoro-17-(hydroxyimino)-13-methyl-7,8,9,11,12,13,14,15,16,17-decahydro-6H-cyclopenta[a]phenanthren-15-yl)-N-(4-methylpyridin-2-yl)propanamide] | 92% | 40% | 14% |
| COc1ccnc(NC(=O)CC[C@@H]2C/C(=N\O)[C@@]3(C)CCC4c5cccc(F)c5CCC4C23)c1 (stereo partly drawn) [Compound 132, 3-((13S,15R,E)-4-fluoro-17-(hydroxyimino)-13-methyl-7,8,9,11,12,13,14,15,16,17-decahydro-6H-cyclopenta[a]phenanthren-15-yl)-N-(4-methoxypyridin-2-yl)propanamide] | 87% | 27% | 6% |
